{
  "source": "patent US8067390B2",
  "about": "“Therapeutic targeting of interleukins using siRNA in neutral liposomes” (The Board of Regents of the University of Texas System, priority 2007, dated 2011)",
  "key": {"HeyA8 [1]": {"system": "HeyA8", "assay": "Tumor cell proliferation (PCNA) in orthotopic HeyA8 tumors", "assay_type": "in vivo, mice", "details": "compared to controls", "description": "(§1) Analysis of tumor microvessel density (CD31) and proliferation (PCNA). Microvessel density analysis was performed by immunostaining for CD31 antigen in orthotopic tumors as previously described (Halder et al., 2006). Briefly, frozen slides were rehydrated in acetone, blocked for endogenous peroxidases with H2O2 in methanol, and incubated overnight at 4° C. with rat anti-mouse m-CD31 antibodies (1:800; BD Bioscience, Pharmingen, San Jose, Calif.). The following day, slides were incubated with appropriate secondary antibody and detected with DAB substrate. Proliferation was assessed by staining for PCNA on paraffin slides as previously reported (Halder et al., 2006). After deparaffinization and rehydration, slides were heated in microwave at 98° C. for 10 min in 0.1M citrate buffer (pH 6.0) for antigen retrieval, blocked for endogenous peroxidases, and then incubated with fragment blocker (1:10; Jackson Immunoresearch Lab., West Grove, Pa.) overnight at 4° C. to reduce murine antigen interference. Following day, slides were incubated with primary antibody (1:50; anti-PCNA, PC-10, mouse IgG, Dako, Carpinteria, Calif.) for 4 hours at RT, washed with PBS, and re-incubated for 1 hour at RT with appropriate secondary. Detection was performed with DAB substrate. Quantification of MVD and proliferation was performed as previously described (Halder et al., 2006)."}, "HeyA8 [2]": {"system": "HeyA8", "assay": "Tumor microvessel density (CD31) in orthotopic HeyA8 tumors", "assay_type": "in vivo, mice", "details": "CD31 staining", "description": "as §1"}, "SKOV3ip1 [3]": {"system": "SKOV3ip1", "assay": "IL-8 siRNA therapy in orthotopic murine ovarian cancer model, SKOV3ip1", "assay_type": "in vivo, mice", "source_text": "(§2) Cell lines and cultures. The derivation and source of the epithelial ovarian cancer cell lines HeyA8 and SKOV3ip1 have been previously described (Halder et al., 2006; Landen et al., 2005). The taxane-resistant cell line, SKOV3ip2.TR (a gift from Dr. Isaiah J. Fidler, M.D. Anderson Cancer Center [MDACC], Houston, Tex.), was derived from the SKOV3ip1 cells following serial passages in media containing paclitaxel. All cell lines were maintained and propagated in RPMI-1640 media supplemented with 15% fetal bovine serum and 0.1% gentamicin sulfate (Gemini Bioproducts, Calabasas, Calif.). SKOV3ip2.TR media also contained 100-150 ng/ml paclitaxel. All experiments were performed at 60-80% confluency and cell lines routinely tested for Mycoplasma. For in vivo experiments, cells were trypsinized, centrifuged at 1000 rpm at 4° C. for 7 minutes, washed twice with HBSS, and resuspended at a concentration of 1.25×10^6 cells/ml (HeyA8) and 5×10^6 cells/ml (SKOV3ip1 and SKOV3ip2.TR).\n(§3) Preparation of liposomal siRNA for in vivo delivery. For all in vivo experiments, siRNA constructs were incorporated into neutral liposomes (DOPC: 1,2-dioleoyl-sn-glycero-3-phosphatidylcholine), lyophilized, and stored at −20° C. (Landen et al., 2005). Prior to in vivo delivery, siRNA-DOPC preparations were resuspended with PBS to appropriate concentrations.\n(§4) IL-8 siRNA therapy in an orthotopic murine ovarian cancer model. Female athymic nude mice were purchased from the National Cancer Institute-Frederick Cancer Research and Development Center (Frederick, Md.) and housed in specific pathogen-free conditions. […]\n(§5) Development and characterization of the orthotopic murine model of advanced ovarian cancer used in these experiments has been previously described (Halder et al., 2006; Landen et al., 2005). […] Mice were monitored daily for signs of adverse effects and sacrificed when moribund. Tumor weights, number of tumor nodules, pattern of disease spread, presence and amount of ascites, and mouse weights were recorded at necropsy. […]"}, "SKOV3ip1 [4]": {"system": "SKOV3ip1", "assay": "Tumor microvessel density (CD31) in orthotopic SKOV3ip1 tumors", "assay_type": "in vivo, mice", "details": "CD31 staining", "description": "as §1"}, "SKOV3ip1 [5]": {"system": "SKOV3ip1", "assay": "Tumor cell proliferation (PCNA) in orthotopic SKOV3ip1 tumors", "assay_type": "in vivo, mice", "details": "compared to controls", "description": "as §1"}, "SKOV3ip2.TR": {"system": "SKOV3ip2.TR", "assay": "IL-8 siRNA therapy in orthotopic murine ovarian cancer model, taxane-resistant SKOV3ip2.TR", "assay_type": "in vivo, mice", "source_text": "as §2, §3, §4, §5"}, "HeyA8 [6]": {"system": "HeyA8", "assay": "IL-8 siRNA therapy in orthotopic murine ovarian cancer model, HeyA8", "assay_type": "in vivo, mice", "source_text": "as §2, §3, §4, §5"}, "IL-8 mRNA": {"system": "IL-8 mRNA", "assay": "IL-8 mRNA expression by RT-PCR after in vitro siRNA transfection", "assay_type": "cell-based, human", "details": "RT-PCR 36-48 hours after siRNA transfection, compared to control siRNA", "source_text": "as §2\nSiRNA and in vitro transfections. […]\nmRNA and protein IL-8 expression analysis for in vitro transfections. The expression of IL-8 in vitro was determined with RT-PCR and ELISA 36-48 hours after siRNA transfection. […] For ELISA, cells were treated with serum-free media day prior to analysis and IL-8 protein levels were quantified using a commercially available ELISA kit (R&D Systems, Minneapolis, Minn.). […]"}, "IL-8": {"system": "IL-8", "assay": "Secreted IL-8 protein by ELISA after in vitro siRNA transfection", "assay_type": "cell-based, human", "details": "for IL-8 protein levels reduced by: ELISA 36-48 hours after siRNA transfection", "source_text": "as §2\nSiRNA and in vitro transfections. IL-8 targeting siRNA purchased from Dharmacon (Lafayette, Colo.) was used to silence IL-8 expression in ovarian cancer cell lines (target sequence: GCCAAGGAGUGCUAAAGAA—SEQ ID NO:1). The sequence of the sense strand of the IL-8 siRNA is […] (SEQ ID NO:39) and the sequence of the antisense strand of the IL-8 siRNA is […] (SEQ ID NO:40). […] For in vitro transfections, 2×10^5 cells/well were plated into 6-well plates. The following day, cells were washed with PBS and incubated with 5 μg siRNA (IL-8 or control) with 30 μl of RNAiFect transfection reagent (Qiagen, Valencia, Calif.) in serum-containing media overnight at 37° C. Media was changed 24 hours after transfection and replaced with appropriate media.\nmRNA and protein IL-8 expression analysis for in vitro transfections. The expression of IL-8 in vitro was determined with RT-PCR and ELISA 36-48 hours after siRNA transfection. For RT-PCR analysis, RNA was isolated according to manufacturer's protocol (Ambion RNAqueous Kit, Ambion, Austin, Tex.), transcribed into cDNA, and amplified: 94° C.×2 min, 94° C.×30 sec, 61° C.×30 sec, 72° C. 2 min, repeated for 21 cycles, and 72° C.×7 min (Primers: IL-8 sense […] (SEQ ID NO:48); IL-8 anti-sense […] (SEQ ID NO:49); GAPDH sense GAGCCACATCGCTCAGAC (SEQ ID NO:50); GAPDH anti-sense CTTCTCATGGTTCACACCC (SEQ ID NO:51)). For ELISA, cells were treated with serum-free media day prior to analysis and IL-8 protein levels were quantified using a commercially available ELISA kit (R&D Systems, Minneapolis, Minn.). All experiments were performed in duplicate and control siRNA was used for comparison."}, "MMP9": {"system": "MMP9", "assay": "MMP9 expression after IL-8 siRNA transfection in vitro", "assay_type": "cell-based, human", "details": "HeyA8 and SKOV3ip1 cell lines; following siRNA transfection in vitro"}, "MMP2": {"system": "MMP2", "assay": "MMP2 expression after IL-8 siRNA transfection in vitro", "assay_type": "cell-based, human", "details": "HeyA8 and SKOV3ip1 cell lines; following siRNA transfection in vitro"}, "HeyA8 cell line": {"system": "HeyA8 cell line", "assay": "Tumor cell invasion in vitro", "assay_type": "cell-based, human"}, "[7]": {"details": "HeyA8 cells, media collected at various time points"}},
  "note": "“And” between values parts separate entries of the source, which are not always exact repeats. Identical values can stand only once. “Also recorded” adds a separate entry of the source.",
  "data": [
    {"compound": "CC(=O)O[C@@]12CO[C@@H]1C[C@H](O)[C@@]1(C)C(=O)[C@H](O)C3=C(C)[C@@H](OC(=O)[C@H](O)[C@@H](NC(=O)OC(C)(C)C)c4ccccc4)C[C@@](O)([C@@H](OC(=O)c4ccccc4)[C@H]21)C3(C)C", "note": "[docetaxel]", "values": [
      {"measurement": "tumor cell proliferation, PCNA staining (in words)", "setting": "HeyA8 [1]", "result": "effective in reducing proliferation; also recorded: decreased tumor cell proliferation"},
      {"measurement": "effect on MVD / tumor angiogenesis (in words)", "setting": "HeyA8 [2]", "result": "Minimal effects"},
      {"measurement": "tumor burden, average number of tumor nodules (in words)", "setting": "SKOV3ip1 [3]; compared to controls", "result": "reduced tumor burden"},
      {"measurement": "effect on MVD / tumor angiogenesis (in words)", "setting": "SKOV3ip1 [4]", "result": "Minimal effects"},
      {"measurement": "tumor cell proliferation, PCNA staining (in words)", "setting": "SKOV3ip1 [5]", "result": "effective in reducing proliferation; also recorded: decreased tumor cell proliferation"},
      {"measurement": "tumor growth reduction (tumor weight)", "setting": "SKOV3ip2.TR; SKOV3ip2.TR taxane-resistant, compared to controls, docetaxel 35 μg", "result": 11, "unit": "%"},
      {"measurement": "tumor burden, average number of tumor nodules (in words)", "setting": "HeyA8 [6]; compared to controls", "result": "reduced tumor burden"}
    ]},
    {"compound": "IL-8 siRNA: IL-8 targeting siRNA from Dharmacon; sense GCCAAGGAGUGCUAAAGAAUU (SEQ ID NO:39), antisense UUCUUUAGCACUCCUUGGCUU (SEQ ID NO:40) (incorporated into neutral DOPC liposomes, further chemistry not given here)", "values": [
      {"measurement": "IL-8 mRNA expression", "setting": "IL-8 mRNA; HeyA8", "result": "significantly reduced; also recorded: significantly decreased"},
      {"measurement": "IL-8 mRNA expression", "setting": "IL-8 mRNA; SKOV3ip1", "result": "significantly reduced; also recorded: significantly decreased"},
      {"measurement": "IL-8 protein levels reduced by", "setting": "IL-8; HeyA8", "result": "79% and 80%"},
      {"measurement": "IL-8 returning to baseline, time after transfection", "setting": "IL-8; [7]", "result": "≤ 96", "unit": "h"},
      {"measurement": "Maximum down regulation of IL-8, time after transfection", "setting": "IL-8; [7]", "result": 48, "unit": "h"},
      {"measurement": "IL-8 protein levels reduced by", "setting": "IL-8; SKOV3ip1", "result": "81% and 80%"},
      {"measurement": "MMP9 expression", "setting": "MMP9", "result": "decreased"},
      {"measurement": "No. nodules (mean ± SE)", "setting": "SKOV3ip1 [3]", "result": "21.0 ± 7.3"},
      {"measurement": "Tumor incidence (%)", "setting": "SKOV3ip1 [3]", "result": 70, "unit": "%"},
      {"measurement": "MMP2 expression", "setting": "MMP2", "result": "decreased"},
      {"measurement": "tumor cell invasion in vitro", "setting": "HeyA8 cell line", "result": "decreased tumor cell invasion"},
      {"measurement": "No. nodules (mean ± SE)", "setting": "SKOV3ip2.TR; SKOV3ip2.TR", "result": "21.9 ± 3.4"},
      {"measurement": "Tumor incidence (%)", "setting": "SKOV3ip2.TR; SKOV3ip2.TR", "result": 90, "unit": "%"},
      {"measurement": "No. nodules (mean ± SE)", "setting": "HeyA8 [6]", "result": "3.4 ± 0.8"},
      {"measurement": "Tumor incidence (%)", "setting": "HeyA8 [6]", "result": 100, "unit": "%"}
    ]}
  ]
}
